This is an account of results in patent US20230398130A1, “METHODS AND COMPOSITIONS FOR DIFFERENTIATING STEM CELLS” (Massachusetts Institute of Technology, priority 2020, published 2023).

Where a name gives a salt, the structure may show the parent alone.

In assay [1] the test system is ISC-enriched organoids. As to the kind of experiment: Primary screen, 384-well 2.5-D organoid differentiation (ENR+CD, 6 days): basal lysozyme secretion (LYZ.NS). Type of assay: cell-based, murine. The conditions noted are these: primary screen, dose 0.40 uM, standard z score of FC. An excerpt: High-throughput screening.
Assay [2] has as its system ISC-enriched organoids. In words: Primary screen, 384-well 2.5-D organoid differentiation (ENR+CD, 6 days, Target Selective Inhibitor Library, vs whole-plate median): ATP (CellTiter-Glo 3D, CTG). The following applies: for Z.CTG: primary screen, standard z score of FC. In general terms: In ATP-based viability assays light output follows the ATP content of the culture.

In the assay with ISC-enriched organoids [1], `CCN(CC)C(=O)c1ccc(C2=CC3(CCNCC3)Oc3cccc(O)c32)cc1` [ADL5859 HCl] gave a Z.LYZ.NS of 0.163. The Z.CTG in the assay with ISC-enriched organoids [2] (dose 0.08 uM) came out at 0.645; in the assay on ISC-enriched organoids [2] (dose 0.40 uM), 0.389; in the assay on ISC-enriched organoids [2] (dose 2.00 uM), 0.695; in the assay with ISC-enriched organoids [2] (dose 10.00 uM) it was 0.465.
With `CN(C)CCOc1ccc(/C(=C(/CCCl)c2ccccc2)c2ccccc2)cc1` [Toremifene Citrate], the “Z.CTG (standard z score)” value is 0.822 in the assay with ISC-enriched organoids [2] (dose 0.08 uM), 0.285 in the assay on ISC-enriched organoids [2] (dose 0.40 uM), −2.417 with ISC-enriched organoids [2] (dose 2.00 uM) and −3.335 with ISC-enriched organoids [2] (dose 10.00 uM).
In the same order, the values of `Cn1c(=O)cc(N2CCC[C@@H](N)C2)n(Cc2cc(F)ccc2C#N)c1=O` [Trelagliptin] are 0.482, −0.181, 0.120 and 0.322.
With `Nc1nc(N)c2nc(-c3ccccc3)c(N)nc2n1` [Triamterene], the “Z.CTG (standard z score)” value is listed as −0.070 with ISC-enriched organoids [2] (dose 0.08 uM), −0.394 in the assay with ISC-enriched organoids [2] (dose 0.40 uM), −0.241 in the assay on ISC-enriched organoids [2] (dose 2.00 uM) and −1.103 with ISC-enriched organoids [2] (dose 10.00 uM).
`CCC(COC(=O)c1cc(OC)c(OC)c(OC)c1)(c1ccccc1)N(C)C` (centres unmarked) [Trimebutine]: the “Z.CTG (standard z score)” value in the assay on ISC-enriched organoids [2] (dose 0.08 uM) is given as 0.017; with ISC-enriched organoids [2] (dose 0.40 uM), −0.483; in the assay on ISC-enriched organoids [2] (dose 2.00 uM) it was −2.409; in the assay on ISC-enriched organoids [2] (dose 10.00 uM), −2.545.
Take `CNCc1ccc(-c2cc(-c3nc(-c4ccc(S(=O)(=O)C(C)C)cc4)cnc3N)on2)cc1` [VE-822]: the “Z.CTG (standard z score)” value in the assay with ISC-enriched organoids [2] (dose 0.08 uM) is reported as −0.351; with ISC-enriched organoids [2] (dose 0.40 uM), −0.685; in the assay with ISC-enriched organoids [2] (dose 2.00 uM) it was −1.713; in the assay with ISC-enriched organoids [2] (dose 10.00 uM) it was −4.212.
The corresponding values for `O=c1ncn2nc(Sc3ccc(F)cc3F)ccc2c1-c1c(Cl)cccc1Cl` [VX-745] are 0.445, 0.349, 0.044 and 0.053.
In the same order, the values of `CCO[C@@H]1OC(=O)C[C@@H]1NC(=O)[C@@H]1CCCN1C(=O)[C@@H](NC(=O)c1ccc(N)c(Cl)c1)C(C)(C)C` [VX-765] are 0.368, 0.555, 0.393 and 0.608.
For the compound `C[C@@H](c1ncncc1F)[C@](O)(Cn1cncn1)c1ccc(F)cc1F` [Voriconazole], the “Z.CTG (standard z score)” value in the assay with ISC-enriched organoids [2] (dose 0.08 uM) turned out to be 0.617; with ISC-enriched organoids [2] (dose 0.40 uM), 0.730; in the assay with ISC-enriched organoids [2] (dose 2.00 uM), 0.680; in the assay with ISC-enriched organoids [2] (dose 10.00 uM), 0.783.
In the same order, the values of `C=CC(=O)Nc1cccc(Oc2nc(Nc3ccc(N4CCN(C)CC4)cc3OC)ncc2Cl)c1` [WZ4002] are 0.748, 0.196, 0.360 and −2.248.
Take `Oc1nc(-c2ccc(C(F)(F)F)cc2)nc2c1CSCC2` [XAV-939]: the “Z.CTG (standard z score)” value is −0.792 in the assay with ISC-enriched organoids [2] (dose 0.08 uM), −0.065 with ISC-enriched organoids [2] (dose 0.40 uM), −0.847 with ISC-enriched organoids [2] (dose 2.00 uM) and −2.147 in the assay on ISC-enriched organoids [2] (dose 10.00 uM).
For `CC(C)OC(=O)C1=CN(C(=O)c2ccc(F)c(F)c2)CC(C)(C)c2c1[nH]c1ccccc21` [XL335], the “Z.CTG (standard z score)” value was 0.297 in the assay on ISC-enriched organoids [2] (dose 0.08 uM), −0.615 in the assay with ISC-enriched organoids [2] (dose 0.40 uM), −0.619 with ISC-enriched organoids [2] (dose 2.00 uM) and −0.373 in the assay on ISC-enriched organoids [2] (dose 10.00 uM).
For the compound `O=c1ncccn1[C@@H]1O[C@H](CO)[C@@H](O)[C@H]1O` [Zebularine], the “Z.CTG (standard z score)” value in the assay on ISC-enriched organoids [2] (dose 0.08 uM) is 0.085; in the assay on ISC-enriched organoids [2] (dose 0.40 uM), 0.000; in the assay with ISC-enriched organoids [2] (dose 2.00 uM), −0.213; in the assay on ISC-enriched organoids [2] (dose 10.00 uM) it was −0.399.
